Test results from patent US20070122830A1, “Prohibitin-directed diagnostics and therapeutics for cancer and chemotherapeutic drug resistance” (Aurelium BioPharma Inc., priority 2005, published 2007).

Assays:
[1] = test system: prohibitin; experiment: Prohibitin silencing by siRNA in MDA cells, anti-prohibitin immunoblot; assay type: cell-based, human; conditions: for decrease in prohibitin expression: MDA cell lines
Method: Cell extracts from drug-resistant and drug-sensitive cell lines were prepared to determine the expression levels of potential therapeutic targets in drug-resistant cells. Briefly, cultured cells were rinsed 2 times with 15 ml of 1× phosphate buffered saline (“PBS”), and harvested by trypsinization. Cells were collected in a 15 ml tube by centrifugation at 1000 rpm for 5 min. The supernatant was discarded and cells were washed 3 times with 1×PBS. The cell pellet was transferred to an Eppendorf tube and […] of 1×PBS were added. Cells were centrifuged 5 min. at 3000 rpm in an Eppendorf Microfuge. The supernatant was removed and cells were then lysed in […] of lysis buffer (50 mM Tris, pH 7.5, 150 mM NaCl, 1% NP-40, 0.5% sodium deoxycholate), containing protease inhibitors ([…], […] benzamidine, 0.2 mM PMSF) and incubated 5 min. on ice. The cell lysates were then centrifuged at 14,000×g for 10 min. at 4° C. The protein concentration of the supernatants was determined by the DC Protein assay (BioRad, Hercules, Calif.). Samples were subsequently stored at −80° C. until ready for analysis.
Total cell lysates were thawed and then incubated with 1 U/ml DNAse I (New England BioLabs, Inc., Beverly, Mass.), 5 mM MgCl2 (final concentration) for 2 hours on ice. Their protein concentration was determined using the RC DC protein assay kit from BIORAD according to manufacturer's instructions (BioRad Laboratories, Hercules, Calif.) (see also Lowry et al., (1951) J. Biol. Chem. 193: 265-275). Equivalent amounts of proteins ([…]) from total cell extracts from sensitive (MCF7, MDA-MB-231) and chemotherapeutic drug-resistant cells (MCF7/AR and MDA-MB-231/AR) were analyzed by polyacrylamide gel electrophoresis followed by blotting to a nitrocellulose membrane. The membrane was subsequently contacted with an anti-prohibitin antibody obtained from Abcam, Inc., Cambridge, Mass. The immunoblots were incubated with an anti-IgG secondary antibody and visualized using horseradish peroxidase using the manufacturer's protocol (Bio-Rad Laboratories, Hercules, Calif.).
To establish the importance of prohibitin to the expression of the drug-resistant phenotype in MDA cell lines, prohibitin expression was silenced using RNAi. Briefly, the following siRNA duplexes targeting the human prohibitin mRNA were designed and purchased either from Ambion (Austin, Tex.) or Invitrogen (Carlsbad, Calif.). […]
The siRNA duplex was predesigned, synthesized with 3′TT overhangs, purified and annealed by Ambion (Austin, Tex.). […] Transfection efficiencies were typically evaluated 24-48 hrs post transfection using a fluorescence microscope. […]

[2] = test system: prohibitin; experiment: Prohibitin silencing by siRNA in MCF-7 cells, anti-prohibitin immunoblot; assay type: cell-based, human; conditions: MCF-7 cell line; FIG. 6
Text: To establish the importance of prohibitin to the expression of the drug-resistant phenotype in MDA cell lines, prohibitin expression was silenced using RNAi. Briefly, the following siRNA duplexes targeting the human prohibitin mRNA were designed and purchased either from Ambion (Austin, Tex.) or Invitrogen (Carlsbad, Calif.). The siRNA duplex sequences corresponding to nucleotides 425 through 443 (GenBank SEQ ID NUMBER: U49725.1) targeting the start of the prohibitin mRNA transcript were:
For a typical siRNA transfection, 1 nmole of the annealed siRNA duplex was mixed with 1.4 ml of Opti-MEM reagent (Invitrogen). In another tube, […] of Oligofectamine reagent (Invitrogen, Carlsbad, Calif.) was mixed with […] of Opti-MEM. The two solutions were combined and mixed gently by inversion and incubated for 20 min. at RT. The resulting solution was added to the cultured cells drop by drop in a 10 cm dish (cells are approximately 40-50% confluent). The next day the transfected cells were trypsinized and seeded in 6 or 96-well plates and further incubated for the indicated amount of time (assay dependent) before further analysis.
Targeted silencing of prohibitin was performed as described in Example 2 above.

prohibitin siRNA: siRNA duplex to human prohibitin mRNA nt 425-443; sense 5′-GGAAGUGGUCUGUCUGUUAtt-3′, antisense 5′-UAACAGACAGACCACUUCCtt-3′ (sense GGAAGUGGUCUGUCUGUUATT; antisense UAACAGACAGACCACUUCCTT; chemistry not given here)
decrease in prohibitin expression ([1]; four days post-treatment, FIG. 2): 43%
decrease in prohibitin expression ([1]; fourth day after treatment, FIG. 3): 58%
decrease in prohibitin expression ([1]; two days post-treatment, FIG. 2): 79%
additional decrease in prohibitin expression compared to mock silencing ([1]; MDA cells, FIG. 5): 60%
decrease in prohibitin expression as compared to mock siRNA [2]: 37%
